The values below come from ChEMBL document CHEMBL1136649, “Synthesis and antibacterial study of 10, 15, 20-triphenyl-5-(4-hydroxy-3-(trimethylammonium)methyl)phenylporphyrin as models for combination of porphyrin and alkylating agent” (2003).

Values after ≈ are worked out from the molar mass of the structure shown.

In the assay the test system is Staphylococcus aureus. The experiment in a line: Minimum inhibitory concentration required against Staphylococcus aureus ATCC 25923. It counts as functional.
`C[N+](C)(C)Cc1cc(-c2c3nc(c(-c4ccccc4)c4ccc([nH]4)c(-c4ccccc4)c4nc(c(-c5ccccc5)c5ccc2[nH]5)C=C4)C=C3)ccc1O` displayed an MIC of 60 µM.
Take `COc1ccc(-c2c3nc(c(-c4ccccc4)c4ccc([nH]4)c(-c4ccccc4)c4nc(c(-c5ccccc5)c5ccc2[nH]5)C=C4)C=C3)cc1C[N+](C)(C)C`: the MIC is 240 µM.
In turn, `CN(C)Cc1cc(-c2c3nc(c(-c4ccccc4)c4ccc([nH]4)c(-c4ccccc4)c4nc(c(-c5ccccc5)c5ccc2[nH]5)C=C4)C=C3)ccc1O` returned an MIC of 120 µM (≈ 82.5 µg/mL).

For orientation: MIC means the least concentration at which growth counts as inhibited. The low end stands for greater potency, the high end for weaker potency.
